Source: ChEMBL document CHEMBL1128265, “Three-dimensional quantitative structure-activity relationship (QSAR) of HIV integrase inhibitors: a comparative molecular field analysis (CoMFA) study” (J Med Chem, 1995)
pIC50: −log10 of the molar value.

Experiments:
[1] = biological target: T1, Human immunodeficiency virus type 1 integrase (Human immunodeficiency virus 1, UniProt Q7ZJM1)
[2] = biological target: T1, Human immunodeficiency virus type 1 integrase; remark: listed apart in the source

T1 sequence (Q7ZJM1 whole entry): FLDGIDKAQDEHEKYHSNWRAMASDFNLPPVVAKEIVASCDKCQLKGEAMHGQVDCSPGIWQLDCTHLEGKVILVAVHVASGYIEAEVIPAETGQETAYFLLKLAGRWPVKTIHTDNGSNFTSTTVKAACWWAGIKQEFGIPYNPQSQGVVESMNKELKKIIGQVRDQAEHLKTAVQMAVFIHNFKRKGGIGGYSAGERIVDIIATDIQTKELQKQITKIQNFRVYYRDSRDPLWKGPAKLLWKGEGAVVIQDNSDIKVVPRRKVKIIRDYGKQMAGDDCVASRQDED

pIC50 [1] | pIC50 [2] | SMILES
4.99 | 4.40 | C[C@@H]1O[C@@H](O)[C@H](O)[C@H](O)[C@H]1Oc1c(-c2cc(O)c(O)c(O)c2)oc2cc(O)cc(O)c2c1=O
4.41 | 4.22 | CC1OC(O)C(O)C(O)C1Oc1c(-c2ccc(O)c(O)c2)oc2cc(O)cc(O)c2c1=O (centres undefined)
4.65 | 4.16 | O=c1c(O)c(-c2ccc(O)c(O)c2)oc2c(O[C@@H]3O[C@@H](O)[C@@H](O)[C@H](O)[C@H]3O)c(O)cc(O)c12
4.60 | 4.18 | O=c1c(OC2COC(O)C(O)C2O)c(-c2ccc(O)c(O)c2)oc2cc(O)cc(O)c12 (centres undefined)
7.00 | 6.10 | O=c1c(O)c(-c2ccc(O)c(O)c2)oc2cc(O)c(O)c(O)c12 [QUERCETAGETIN]
4.54 | 4.21 | COc1cc(O)c2c(=O)c(O)c(-c3ccc(O)c(O)c3)oc2c1 [RHAMNETIN]

The next lines start with the compound.

SMILES | pIC50 [1] | pIC50 [2]
COc1c(O)cc2oc(-c3ccc(O)c(O)c3)cc(=O)c2c1O [EUPAFOLIN] | 4.41 | 4.03
O=c1c(O)c(-c2ccc(O)c(O)c2)oc2cc(O)ccc12 [FISETIN] | 5.07 | 4.55
O=c1c(O)c(-c2ccc(O)cc2)oc2cc(O)cc(O)c12 [KAEMPFEROL] | 4.19 | 4.01
O=c1cc(-c2ccc(O)c(O)c2)oc2cc(O)cc(O)c12 [LUTEOLIN] | 4.60 | 4.48
O=c1c(O)c(-c2ccc(O)cc2O)oc2cc(O)cc(O)c12 [MORIN] | 4.50 | 4.12
O=c1c(O)c(-c2cc(O)c(O)c(O)c2)oc2cc(O)ccc12 [ROBINETIN] | 5.80 | 5.23
